What all share (assay type): cell-based, human
Series [1] relates to THP-1 cells. Briefly: Viability of THP-1 cells treated with glycitein, optionally with LPS and IFN-γ (cell counting kit). The following applies: 24 hours. The protocol:
THP-1 cells (acquired from Korean Cell Line Bank) were seeded onto a 96-well plate, with 3×10^4 cells per well, and cultured in an RPMI-1640 medium (acquired from Lonza) containing 10% (v/v) FBS, 100 U/mL penicillin and 100 μg/mL streptomycin under the condition of 37° C. and 5% CO2 for 24 hours. […] After treating with a cell counting kit reagent, with 1/10 the volume of each well, and culturing for 2 hours, O.D. value was measured using SpectraMax.
Background: Formazan colour is commonly taken as a measure of viable cells.

In series [2] the test system is TNF-α. Briefly: Production of TNF-α in THP-1 cells treated with glycitein and stimulants (TNF-α ELISA kit). The settings on record: THP-1 cells, 0, 0.1, 1 and 10 μM glycitein, then 1 μg/mL LPS and 500 UNITs IFN-γ, FIG. 9. The procedure:
THP-1 cells (acquired from Korean Cell Line Bank) were seeded onto a 6-well plate, with 5×10^5 cells per well, and treated with 0, 0.1, 1 and 10 μM glycitein. […] After culturing for 24 hours, the culture medium was centrifuged at 1000 rpm for 3 minutes and the supernatant was taken. The concentration of TNF-α in the culture medium was determined using a TNF-α ELISA kit.
Background: In an ELISA, binding on a coated surface is turned into a signal by an enzyme label.

For series [3], the system named is inflammatory cytokines. Briefly: Production of inflammatory cytokines in THP-1 cells treated with glycitein and stimulants (cytokine array kit). The settings on record: 10 μM glycitein, then 1 μg/mL LPS and 500 UNITs IFN-γ, FIG. 10. The procedure:
THP-1 cells (acquired from Korean Cell Line Bank) were seeded onto a 6-well plate, with 5×10^5 cells per well, and treated with 10 μM glycitein. […] The cells untreated or treated only with the stimulant were used as a control group. The culture medium was centrifuged at 1000 rpm for 3 minutes and the supernatant was taken. The inflammatory cytokines included in the cell culture medium were identified using a cytokine array kit (R&D Systems).

The test system of series [4] is NHF cells. Briefly: Viability of NHF cells treated with glycitein and stimulants (cell counting kit). The following applies: 0.1-10 μM glycitein together with 1 μg/mL LPS and 500 UNITs IFN-γ, 24 hours, FIG. 11. The procedure: NHF cells (acquired from Lonza) were seeded onto a 96-well plate, with 1×10^4 cells per well, and cultured in a DMEM medium (acquired from Lonza) containing 10% (v/v) FBS, 100 U/mL penicillin and 100 μg/mL streptomycin under the condition of 37° C. and 5% CO2 for 24 hours. […] After treating with a cell counting kit reagent, with 1/10 the volume of each well, and culturing for 2 hours, then O.D. value was measured using SpectraMax.

In series [5] the test system is MMP-1. Put plainly: Production of MMP-1 in NHF cells treated with glycitein and stimulated THP-1 cell culture medium (MMP-1 assay kit). The settings on record: NHF cells pretreated with 10 μM glycitein, then stimulated THP-1 culture medium, FIG. 12. The protocol:
THP-1 cells (acquired from Korean Cell Line Bank) were seeded onto a 6-well plate, with 5×10^5 cells per well, and cultured in an RPMI-1640 medium (acquired from Lonza) containing 10% (v/v) FBS, 100 U/mL penicillin and 100 μg/mL streptomycin under the condition of 37° C. and 5% CO2 for 24 hours. Also, NHF cells (acquired from Lonza) were seeded onto a 24-well plate, with 3×10^4 cells per well, and cultured in a DMEM medium (acquired from Lonza) containing 10% (v/v) FBS, 100 U/mL penicillin and 100 μg/mL streptomycin under the condition of 37° C. and 5% CO2 for 24 hours. […] The THP-1 cell culture medium was centrifuged at 1000 rpm for 3 minutes and the supernatant was taken. The NHF cells were treated with the supernatant. NHF cells treated with serum-free DMEM (acquired from Lonza) were used as an untreated group. After culturing for 24 hours, the concentration of MMP-1 in the NHF cells was measured using an MMP-1 assay kit and the ratio of the concentration of MMP-1 relative to the untreated group was calculated.

Series [6] relates to TNF-α. Briefly: Production of TNF-α in THP-1 cells treated with LPS and/or IFN-γ (TNF-α ELISA kit). The following applies: IFN-γ alone, all concentrations (250, 500, 1000 UNITs), FIG. 1. The procedure: THP-1 cells (acquired from Korean Cell Line Bank) were seeded onto a 6-well plate, with 5×10^5 cells per well, and cultured in an RPMI-1640 medium (acquired from Lonza) containing 10% (v/v) FBS, 100 U/mL penicillin and 100 μg/mL streptomycin under the condition of 37° C. and 5% CO2 for 24 hours. Subsequently, the cells were cultured for 24 hours after treating with three kinds of LPS derived from Escherichia coli (E. coli O111:B4, E. coli O55:B5 and E. coli EH100) and two kinds of LPS derived from Salmonella [Salmonella typhosa (S. typhosa) and Salmonella typhimurium (S. typhimurium), acquired from Sigma Aldrich], at concentrations of 0, 0.1 and 1 μg/mL, and with 0, 250, 500 and 1000 UNITs of INF-γ (acquired from Sigma Aldrich). Subsequently, the culture medium was centrifuged at 1000 rpm for 3 minutes and the supernatant was taken and then the concentration of TNF-α in the supernatant was determined using a TNF-α ELISA kit.

Series [7] deals with THP-1 cells. Put plainly: Viability of THP-1 cells treated with LPS and IFN-γ (cell counting kit). The protocol: THP-1 cells (acquired from Korean Cell Line Bank) were seeded onto a 96-well plate, with 3×10^4 cells per well, and cultured in an RPMI-1640 medium (acquired from Lonza) containing 10% (v/v) FBS, 100 U/mL penicillin and 100 μg/mL streptomycin under the condition of 37° C. and 5% CO2 for 24 hours. […] After treating with a cell counting kit reagent, with 1/10 the volume of each well, and culturing for 2 hours, cell viability was determined by measuring O.D. value using SpectraMax.

On to `COc1cc2c(=O)c(-c3ccc(O)cc3)coc2cc1O` [glycitein], for which the cytotoxicity entry in series [1] (glycitein alone, 10 μM or lower, FIG. 7) is “no cytotoxicity”; in series [1] (glycitein together with 1 μg/mL LPS and 500 UNITs IFN-γ, FIG. 8), “no cytotoxicity”; in series [4], “no cytotoxicity”. Besides, in series [2], the “concentration of TNF-α” value is reported as “lower as the concentration of glycitein increased”. Besides, the “amount of the inflammatory cytokines produced upon treatment with the stimulant” value in series [3] is “decreased”. In addition, the “production of MMP-1” value in series [5] is listed as “decreased production of MMP-1”.

B1: IFN-γ: interferon-γ acquired from Sigma Aldrich, enhances inflammatory stimulation by LPS (protein, UniProt P01579 24-161, looked up)
Interferon gamma: QDPYVKEAENLKKYFNAGHSDVADNGTLFLGILKNWKEESDRKIMQSQIVSFYFKLFKNFKDDQSIQKSVETIKEDMNVKFFNSNKKKRDDFEKLTNYSVTDLNVQRKAIHELIQVMAELSPAAKTGKRKRSQMLFRG
B1: in series [6], the “effect on the production of TNF-α” value was “no effect”. Besides, the cytotoxicity entry in series [7] is “no cytotoxicity”.
